According to patent publication US10196390B2, “TYK2 inhibitors and uses thereof” (Nimbus Lakshmi, Inc., priority 2014, dated 2019):

Experiments:
JAK2 = JAK2 (Homo sapiens (Human), UniProt O60674); experiment: JAK2 activity inhibition assay (radioactive kinase assay / Caliper assay); assay type: biochemical; settings: read-out: JAK2 Ki
Procedure, shortened: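 Mobility-shift (Caliper) read-out of phosphorylated peptide substrate. Compound diluted in 25 mM HEPES pH 7.5, 0.01% Brij-35, 0.01% Triton, 0.5 mM EGTA; enzyme added, then peptide plus ATP in 10 mM MgCl2. Incubated 25 min at 28° C, stopped with EDTA buffer.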

TYK2 = TYK2 (Homo sapiens (Human), UniProt P29597); experiment: Tyk2 activity inhibition assay (radioactive kinase assay / Caliper assay); assay type: biochemical
Procedure, shortened: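 Radiometric format: TYK2 with peptide substrate (20 μM) and 33P-ATP at 10 μM in HEPES pH 7.5, 1% DMSO, 120 min at room temp, P81 paper capture. Caliper mobility-shift format: TYK2 9.75 nM, peptide 30 at 3 uM, ATP 16 uM (also 1 mM), 25 min at 28° C.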

Chain of JAK2 (O60674 whole entry): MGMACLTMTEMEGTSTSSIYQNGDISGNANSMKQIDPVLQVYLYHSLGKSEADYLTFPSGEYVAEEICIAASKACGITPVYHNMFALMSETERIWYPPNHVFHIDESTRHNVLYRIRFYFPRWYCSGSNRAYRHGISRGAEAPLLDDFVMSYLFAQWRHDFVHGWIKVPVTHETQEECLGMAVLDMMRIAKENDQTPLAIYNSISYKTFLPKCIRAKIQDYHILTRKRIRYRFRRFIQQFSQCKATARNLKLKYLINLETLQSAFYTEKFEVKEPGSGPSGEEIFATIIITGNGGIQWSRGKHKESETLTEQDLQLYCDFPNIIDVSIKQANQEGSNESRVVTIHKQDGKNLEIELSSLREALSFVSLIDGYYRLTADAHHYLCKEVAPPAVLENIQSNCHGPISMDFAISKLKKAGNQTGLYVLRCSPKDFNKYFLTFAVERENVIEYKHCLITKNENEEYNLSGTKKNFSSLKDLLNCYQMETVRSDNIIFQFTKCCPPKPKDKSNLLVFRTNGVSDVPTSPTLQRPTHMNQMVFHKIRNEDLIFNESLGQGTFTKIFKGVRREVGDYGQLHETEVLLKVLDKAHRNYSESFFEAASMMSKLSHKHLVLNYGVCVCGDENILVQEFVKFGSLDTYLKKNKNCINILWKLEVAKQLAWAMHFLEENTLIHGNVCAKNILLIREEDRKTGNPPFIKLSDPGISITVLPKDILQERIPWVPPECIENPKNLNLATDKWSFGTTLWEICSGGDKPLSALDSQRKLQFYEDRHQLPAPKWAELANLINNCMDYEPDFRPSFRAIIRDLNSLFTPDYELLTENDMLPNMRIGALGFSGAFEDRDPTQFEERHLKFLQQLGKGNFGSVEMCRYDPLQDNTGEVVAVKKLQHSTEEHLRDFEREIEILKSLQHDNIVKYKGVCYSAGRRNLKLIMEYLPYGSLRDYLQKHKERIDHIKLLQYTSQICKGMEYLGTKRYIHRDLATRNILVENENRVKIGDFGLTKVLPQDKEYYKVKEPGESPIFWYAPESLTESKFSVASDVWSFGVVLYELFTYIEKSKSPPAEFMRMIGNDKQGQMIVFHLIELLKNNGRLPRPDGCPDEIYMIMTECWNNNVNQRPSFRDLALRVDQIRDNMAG
Chain of TYK2 (P29597 whole entry): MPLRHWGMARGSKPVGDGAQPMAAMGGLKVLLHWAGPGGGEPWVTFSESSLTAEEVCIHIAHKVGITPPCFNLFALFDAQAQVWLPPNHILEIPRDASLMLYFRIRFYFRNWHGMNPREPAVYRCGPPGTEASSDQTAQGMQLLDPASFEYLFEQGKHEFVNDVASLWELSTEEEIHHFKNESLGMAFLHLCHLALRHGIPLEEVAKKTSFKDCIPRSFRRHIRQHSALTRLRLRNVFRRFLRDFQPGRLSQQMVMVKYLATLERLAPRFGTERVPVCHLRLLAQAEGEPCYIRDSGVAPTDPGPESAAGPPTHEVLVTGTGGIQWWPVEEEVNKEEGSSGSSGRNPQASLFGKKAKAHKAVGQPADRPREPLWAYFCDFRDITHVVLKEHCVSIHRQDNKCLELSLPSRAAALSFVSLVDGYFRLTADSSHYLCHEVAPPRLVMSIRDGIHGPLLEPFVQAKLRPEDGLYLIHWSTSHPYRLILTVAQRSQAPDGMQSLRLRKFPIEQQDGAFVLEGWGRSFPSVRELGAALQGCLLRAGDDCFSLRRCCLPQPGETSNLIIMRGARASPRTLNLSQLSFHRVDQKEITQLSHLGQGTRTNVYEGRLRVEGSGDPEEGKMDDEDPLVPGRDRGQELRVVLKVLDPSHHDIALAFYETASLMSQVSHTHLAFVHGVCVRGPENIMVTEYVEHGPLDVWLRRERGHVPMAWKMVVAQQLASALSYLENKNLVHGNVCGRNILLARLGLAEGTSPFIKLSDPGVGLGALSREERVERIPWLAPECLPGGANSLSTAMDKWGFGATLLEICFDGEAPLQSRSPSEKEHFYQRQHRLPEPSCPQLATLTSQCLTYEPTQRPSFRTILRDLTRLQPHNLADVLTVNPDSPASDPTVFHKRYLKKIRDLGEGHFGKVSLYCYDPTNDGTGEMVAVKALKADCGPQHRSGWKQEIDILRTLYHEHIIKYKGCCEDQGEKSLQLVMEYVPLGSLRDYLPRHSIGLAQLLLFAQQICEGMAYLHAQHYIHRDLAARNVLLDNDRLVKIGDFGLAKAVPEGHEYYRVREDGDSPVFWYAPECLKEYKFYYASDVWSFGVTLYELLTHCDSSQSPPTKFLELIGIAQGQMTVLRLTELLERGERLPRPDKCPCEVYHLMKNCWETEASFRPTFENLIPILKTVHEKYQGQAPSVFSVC

SMILES	Ki (JAK2) [nM]	Ki (TYK2) [nM]
O=C1NCc2nc(-c3c(F)cccc3F)cc(Nc3ccc(OCCN4CCC4)cn3)c21 [Compound I-134, 4-((5-(2-(azetidin-1-yl)ethoxy)pyridin-2-yl)amino)-2-(2,6-difluorophenyl)-6,7-dihydro-5H-pyrrolo[3,4-b]pyridin-5-one]	10 to 100	< 10
O=C(NC1CCOCC1)c1ccc(Nc2cc(-c3c(F)cccc3F)nc3c2C(=O)NC3)nc1 [Compound I-139, 6-((2-(2,6-difluorophenyl)-5-oxo-6,7-dihydro-5H-pyrrolo[3,4-b]pyridin-4-yl)amino)-N-(tetrahydro-2H-pyran-4-yl)nicotinamide]	10 to 100	< 10
N[C@H]1CCCN(c2ccc(Nc3cc(-c4c(F)cccc4F)nc4c3C(=O)NC4)nc2)C1 [Compound I-143, (S)-4-((5-(3-aminopiperidin-1-yl)pyridin-2-yl)amino)-2-(2,6-difluorophenyl)-6,7-dihydro-5H-pyrrolo[3,4-b]pyridin-5-one]	10 to 100	< 10
COc1ccc(Nc2cc(-c3c(F)cccc3Cl)nc3c2C(=O)NC3)nc1 [Compound I-145, 2-(2-chloro-6-fluorophenyl)-4-((5-methoxypyridin-2-yl)amino)-6,7-dihydro-5H-pyrrolo[3,4-b]pyridin-5-one]	10 to 100	< 10
O=C1NCc2nc(-c3c(F)cccc3F)nc(Nc3ccc(C4CCN(CCO)C4=O)cc3)c21 (stereo not shown) [Compound I-149, 2-(2,6-difluorophenyl)-4-((4-(1-(2-hydroxyethyl)-2-oxopyrrolidin-3-yl)phenyl)amino)-6,7-dihydro-5H-pyrrolo[3,4-d]pyrimidin-5-one]	100 to 1000	< 10
CN1CC[C@@](C)(c2ccc(Nc3nc(-c4c(F)cccc4F)nc4c3C(=O)NC4)cc2)C1=O [Compound I-151, (S)-2-(2,6-difluorophenyl)-4-((4-(1,3-dimethyl-2-oxopyrrolidin-3-yl)phenyl)amino)-6,7-dihydro-5H-pyrrolo[3,4-d]pyrimidin-5-one]	100 to 1000	< 10
CN1CC[C@](C)(c2ccc(Nc3nc(-c4c(F)cccc4F)nc4c3C(=O)NC4)cc2)C1=O [Compound I-152, (R)-2-(2,6-difluorophenyl)-4-((4-(1,3-dimethyl-2-oxopyrrolidin-3-yl)phenyl)amino)-6,7-dihydro-5H-pyrrolo[3,4-d]pyrimidin-5-one]	100 to 1000	< 10
O=C1NCc2nc(-c3c(F)cccc3F)nc(Nc3ccc(C(=O)N4CC5(COC5)C4)cc3)c21 [Compound I-157, 4-((4-(2-oxa-6-azaspiro[3.3]heptane-6-carbonyl)phenyl)amino)-2-(2,6-difluorophenyl)-6,7-dihydro-5H-pyrrolo[3,4-d]pyrimidin-5-one]	100 to 1000	10 to 100
N[C@@H]1CCCN(c2ccc(Nc3cc(-c4c(F)cccc4F)nc4c3C(=O)NC4)nc2)C1 [Compound I-159, (R)-4-((5-(3-aminopiperidin-1-yl)pyridin-2-yl)amino)-2-(2,6-difluorophenyl)-6,7-dihydro-5H-pyrrolo[3,4-b]pyridin-5-one]	< 10	< 10
O=C1NCc2nc(-c3c(F)cccc3F)cc(Nc3ccc(N4CCNCC4)cn3)c21 [Compound I-162, 2-(2,6-difluorophenyl)-4-((5-(piperazin-1-yl)pyridin-2-yl)amino)-6,7-dihydro-5H-pyrrolo[3,4-b]pyridin-5-one]	10 to 100	< 10
O=C(NCCO)c1ccc(Nc2cc(-c3c(F)cccc3F)nc3c2C(=O)NC3)nc1 [Compound I-164, 6-((2-(2,6-difluorophenyl)-5-oxo-6,7-dihydro-5H-pyrrolo[3,4-b]pyridin-4-yl)amino)-N-(2-hydroxyethyl)nicotinamide]	10 to 100	< 10
CC1(c2ccc(Nc3nc(-c4c(F)cccc4F)nc4c3C(=O)NC4)cc2)NC(=O)NC1=O (stereo not shown) [Compound I-172, 5-(4-((2-(2,6-difluorophenyl)-5-oxo-6,7-dihydro-5H-pyrrolo[3,4-d]pyrimidin-4-yl)amino)phenyl)-5-methylimidazolidine-2,4-dione]	10 to 100	< 10
C[C@@]1(c2ccc(Nc3nc(-c4c(F)cccc4F)nc4c3C(=O)NC4)cc2)NC(=O)NC1=O [Compound I-173, (S)-5-(4-((2-(2,6-difluorophenyl)-5-oxo-6,7-dihydro-5H-pyrrolo[3,4-d]pyrimidin-4-yl)amino)phenyl)-5-methylimidazolidine-2,4-dione]	10 to 100	< 10
COc1ccc(Nc2nc(N3[C@H](C)CCC[C@@H]3C)nc3c2C(=O)NC3)cc1 [Compound I-183, 2-((2R,6S)-2,6-dimethylpiperidin-1-yl)-4-((4-methoxyphenyl)amino)-6,7-dihydro-5H-pyrrolo[3,4-d]pyrimidin-5-one]	10 to 100	< 10
O=C(O)Cc1ccc(Nc2cc(-c3c(F)cccc3F)nc3c2C(=O)NC3)nc1 [Compound I-186, 2-(6-((2-(2,6-difluorophenyl)-5-oxo-6,7-dihydro-5H-pyrrolo[3,4-b]pyridin-4-yl)amino)pyridin-3-yl)acetic Acid]	100 to 1000	< 10
CN1CC2(C1)CN(c1ccc(Nc3cc(-c4c(F)cccc4F)nc4c3C(=O)NC4)nc1)C2 [Compound I-187, 2-(2,6-difluorophenyl)-4-((5-(6-methyl-2,6-diazaspiro-[3.3]heptan-2-yl)pyridin-2-yl)amino)-6,7-dihydro-5-pyrrolo[3,4-b]pyridin-5-one]	10 to 100	< 10
CC(C(=O)O)c1ccc(Nc2nc(-c3c(F)cccc3F)nc3c2C(=O)NC3)cc1 (stereo not shown) [Compound I-189, 2-(4-((2-(2,6-difluorophenyl)-5-oxo-6,7-dihydro-5H-pyrrolo[3,4-d]pyrimidin-4-yl)amino)phenyl)propanoic Acid]	100 to 1000	< 10

More lines, now with the values ahead:

Ki (JAK2) [nM]	Ki (TYK2) [nM]	SMILES
100 to 1000	< 10	O=C1NCc2nc(-c3c(F)cccc3F)nc(Nc3ccc(C4CCCNC4=O)cc3)c21 (stereo not shown) [Compound I-153, 2-(2,6-difluorophenyl)-4-((4-(2-oxopiperidin-3-yl)phenyl)amino)-6,7-dihydro-5H-pyrrolo[3,4-d]pyrimidin-5-one]
100 to 1000	< 10	O=C1NCc2nc(-c3c(F)cccc3F)nc(Nc3ccc([C@@H]4CCCNC4=O)cc3)c21 [Compound I-155, (S)-2-(2,6-difluorophenyl)-4-((4-(2-oxopiperidin-3-yl)phenyl)-amino)-6,7-dihydro-5H-pyrrolo[3,4-d]pyrimidin-5-one]
100 to 1000	< 10	O=C(O)c1ccc(Nc2nc(-c3c(F)cccc3F)nc3c2C(=O)NC3)cc1 [Compound I-156, 4-((2-(2,6-difluorophenyl)-5-oxo-6,7-dihydro-5H-pyrrolo[3,4-d]pyrimidin-4-yl)amino)benzoicacid]
100 to 1000	10 to 100	O=C1NCc2nc(-c3c(F)cccc3F)nc(Nc3ccc(C(=O)N4CCC4)cc3)c21 [Compound I-158, 4-((4-(azetidine-1-carbonyl)phenyl)amino)-2-(2,6-difluoro-phenyl)-6,7-dihydro-5H-pyrrolo[3,4-d]pyrimidin-5-one]
> 1000	10 to 100	Cn1cc(Nc2nc(-c3c(F)cccc3F)nc3c2C(=O)NC3)cn1 [Compound I-160, 2-(2,6-difluorophenyl)-4-((1-methyl-1H-pyrazol-4-yl)amino)-6,7-dihydro-5H-pyrrolo[3,4-d]pyrimidin-5-one]
100 to 1000	< 10	O=C1NCc2nc(-c3c(F)cccc3F)nc(Nc3ccc(C(=O)N4CC(O)C4)cc3)c21 [Compound I-168, 2-(2,6-difluorophenyl)-4-((4-(3-hydroxyazetidine-1-carbo-nyl)phenyl)amino)-6,7-dihydro-5H-pyrrolo[3,4-d]pyrimidin-5-one]
10 to 100	< 10	C[C@]1(c2ccc(Nc3nc(-c4c(F)cccc4F)nc4c3C(=O)NC4)cc2)NC(=O)NC1=O [Compound I-174, (R)-5-(4-((2-(2,6-difluorophenyl)-5-oxo-6,7-dihydro-5H-pyrrolo[3,4-d]pyrimidin-4-yl)amino)phenyl)-5-methylimidazolidine-2,4-dione]
100 to 1000	< 10	CCOC(=O)C(C)(C)c1ccc(Nc2nc(-c3c(F)cccc3F)nc3c2C(=O)NC3)cc1 [Compound I-178, ethyl 2-(4-((2-(2,6-difluorophenyl)-5-oxo-6,7-dihydro-5H-pyrrolo[3,4-d]pyrimidin-4-yl)amino)phenyl)-2-methylpropanoate]
100 to 1000	10 to 100	O=C1NCc2nc(-c3c(F)cccc3F)nc(Nc3ccccc3)c21 [Compound I-179, 2-(2,6-difluorophenyl)-4-(phenylamino)-6,7-dihydro-5H-pyrrolo[3,4-d]pyrimidin-5-one]
> 1000	10 to 100	O=C1NCc2nc(-c3c(F)cccc3F)nc(Nc3ccc(Cl)cc3)c21 [Compound I-180, 4-((4-chlorophenyl)amino)-2-(2,6-difluorophenyl)-6,7-dihydro-5H-pyrrolo[3,4-d]pyrimidin-5-one]
100 to 1000	< 10	COCCOc1ccc(Nc2nc(-c3c(F)cccc3F)nc3c2C(=O)NC3)cc1 [Compound I-185, 2-(2,6-difluorophenyl)-4-((4-(2-methoxy-ethoxy)-phenyl)amino)-6,7-dihydro-5H-pyrrolo[3,4-d]pyrimidin-5-one]
100 to 1000	< 10	O=C1NC(=O)C(c2ccc(Nc3nc(-c4c(F)cccc4F)nc4c3C(=O)NC4)cc2)S1 (stereo not shown) [Compound I-192, 5-(4-((2-(2,6-difluorophenyl)-5-oxo-6,7-dihydro-5H-pyrrolo[3,4-d]pyrimidin-4-yl)amino)phenyl)thiazolidine-2,4-dione]
